Results from PMC4084896 (PLoS ONE, 2014).
Converted amounts (≈) assume the structure as drawn.

Experiments:
AhR = target: T1, AhR (Mus musculus, UniProt P30561); assay: EMSA with nuclear extracts from Hepa-1c1c7 cells (AhR-ARNT-DRE complex); format: cell-based; conditions: Hepa-1c1c7 nuclear extracts, 50 µM, 2 h
T1 construct: endogenous in cells; host or cells: mouse hepatoma Hepa-1c1c7 cells (living cells treated 2 h, then nuclear extracts made)
Description: Electrophoretic mobility shift assay was performed in guinea pig cytosol and nuclear extract from mouse hepatoma cells. Hepa-1c1c7 cells were incubated for 2 h with tested compounds. Nuclear extracts procedure and EMSA analysis was performed as previously described (Soshilov & Denison; 2014). Guinea pig hepatic cytosol (8 mg/mL in HEDG) was incubated for 2 h in a room temperature water bath with tested compounds. An aliquot of the reaction was mixed with poly[dI•dC] and [^32P]-DRE (100.000 cpm), and AHR:DRE:[^32P]DRE complexes were resolved by gel retardation analysis, visualized by autoradiography and quantified by phosphorimager analysis (FujiFilm) of the dried gels.
We carried out the electrophoretic mobility shift assay (EMSA) to reveal whether effects of KET on AhR-CYP1A pathway involve transformation of AhR to DNA binding form, and whether these effects are enantiospecific. For this purpose, EMSA was performed in two experimental systems: (i) Hepatic guinea pig cytosol was treated for 2 hours with DMSO, 20 nM TCDD, (+)-KET, (−)-KET and commercial rac-KET (from Sigma) at 10 µM, 30 µM and 50 µM. All forms of KET transformed AhR to DNA binding form, but the activation was very weak and not statistically above background. There was a slightly stronger effect of (+)-KET and rac-KET as compared to (−)-KET, but the difference was not significant (Figure 4A). (ii) Since we obtained only weak signals in guinea pig liver cytosols, we also analyzed nuclear extracts from mouse hepatoma Hepa-1c1c7 cells treated for 2 hours with DMSO, TCDD (10 nM), (+)-KET (50 µM), (−)-KET (50 µM), commercial rac-KET (Sigma; 50 µM) or an equimolar mix of (+)/(−) enantiomers (50 µM total). […] The effects of (−)-KET were slightly stronger as compared to (+)-KET. […] In addition, we observed formation of the second band with lower molecular weight than AhR-ARNT-DRE, by purified KET enantiomers but not by TCDD and commercial KET.

[1] = target: T2, glucocorticoid receptor (GR) (Homo sapiens, UniProt P04150); assay: GR gene reporter assay in AZ-GR cells, antagonist mode (DEX 100 nM); format: cell-based; conditions: 24 h
T2 sequence (P04150 1-777): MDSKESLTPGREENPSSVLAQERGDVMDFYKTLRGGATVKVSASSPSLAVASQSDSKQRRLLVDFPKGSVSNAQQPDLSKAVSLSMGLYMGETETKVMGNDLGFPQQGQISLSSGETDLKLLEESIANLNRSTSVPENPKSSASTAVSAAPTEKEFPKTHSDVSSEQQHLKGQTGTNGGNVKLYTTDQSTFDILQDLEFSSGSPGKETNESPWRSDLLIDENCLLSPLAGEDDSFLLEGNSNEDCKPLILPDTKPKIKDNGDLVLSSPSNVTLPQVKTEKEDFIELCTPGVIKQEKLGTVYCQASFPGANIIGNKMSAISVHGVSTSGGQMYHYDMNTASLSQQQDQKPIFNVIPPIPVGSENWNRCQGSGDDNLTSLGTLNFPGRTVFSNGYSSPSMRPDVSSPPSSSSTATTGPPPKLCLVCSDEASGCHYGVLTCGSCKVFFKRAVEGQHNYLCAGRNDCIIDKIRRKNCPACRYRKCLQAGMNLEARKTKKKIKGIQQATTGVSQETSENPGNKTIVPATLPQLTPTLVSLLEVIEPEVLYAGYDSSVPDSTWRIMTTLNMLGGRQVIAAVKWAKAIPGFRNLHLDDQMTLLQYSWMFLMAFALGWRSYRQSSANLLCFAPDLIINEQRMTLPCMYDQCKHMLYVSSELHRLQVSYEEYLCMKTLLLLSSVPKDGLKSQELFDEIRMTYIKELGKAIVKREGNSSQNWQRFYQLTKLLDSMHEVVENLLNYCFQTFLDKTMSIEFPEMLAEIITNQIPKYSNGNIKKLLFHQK
Description: (§1) A stably transfected gene reporter cell line AZ-AHR, derived from human hepatoma HepG2 cells transfected with a construct containing several AhR binding sites upstream of a luciferase reporter gene, was used for assessment of AhR transcriptional activity. A stably transfected gene reporter cell line AZ-GR, derived from human cervix carcinoma HeLa cells transfected with a construct containing several GR response elements upstream of a luciferase reporter gene, was used for assessment of GR transcriptional activity. Cells were incubated for 24 h with tested compounds and/or vehicle (DMSO; 0.1% v/v), in the presence or absence of TCDD (5 nM; AZ-AHR cells) or DEX (100 nM; AZ-GR cells). After the treatments, cells were lysed and luciferase activity was measured. In parallel, cell viability was determined by conventional MTT test.
(§2) There is multiple evidence for the role of glucocorticoid receptor (GR) in regulation of AhR activity. […] Gene reporter assays were performed in agonist and antagonist mode (similarly as described in section 3.1.).

[2] = MTT cytotoxicity test in primary human hepatocytes; format: cell-based; conditions: primary human hepatocytes, read-out: viability, % of control value
Description: as §1
The cells were treated for 24 h with (+)-KET, (−)-KET and commercial rac-KET (1 µM, 30 µM, 50 µM), and with TCDD (5 nM) and vehicle (DMSO; 0.1% V/V). […] In the cytotoxicity assay, we found all forms of KET highly toxic against human hepatocytes at the concentration 50 µM.

[3] = MTT cytotoxicity test in AZ-AHR cells; format: cell-based, human; conditions: human; 24 h incubation, six passages; read-out: AZ-AHR viability - MTT IC50
Description: as §1
Prior to the agonist or antagonist experiments, the cytotoxicity of tested compounds was assessed using the conventional MTT assay. […] The vehicle was DMSO (0.1% v/v). After the treatment, a MTT test was performed.

[4] = system: tyrosine aminotransferase (TAT) mRNA; assay: TAT mRNA in HepG2 cells (qRT-PCR); format: cell-based, human; conditions: HepG2, 1, 30, 50 µM, 24 h
[5] = target: T3, aryl hydrocarbon receptor AhR (Homo sapiens, UniProt P35869); assay: AhR gene reporter assay in AZ-AHR cells, antagonist mode (TCDD 5 nM); format: cell-based; conditions: 24 h, in the presence of TCDD 5 nM
T3 construct: endogenous in cells; host or cells: AZ-AHR (stably transfected reporter line derived from HepG2)
T3 sequence (P35869 11-848): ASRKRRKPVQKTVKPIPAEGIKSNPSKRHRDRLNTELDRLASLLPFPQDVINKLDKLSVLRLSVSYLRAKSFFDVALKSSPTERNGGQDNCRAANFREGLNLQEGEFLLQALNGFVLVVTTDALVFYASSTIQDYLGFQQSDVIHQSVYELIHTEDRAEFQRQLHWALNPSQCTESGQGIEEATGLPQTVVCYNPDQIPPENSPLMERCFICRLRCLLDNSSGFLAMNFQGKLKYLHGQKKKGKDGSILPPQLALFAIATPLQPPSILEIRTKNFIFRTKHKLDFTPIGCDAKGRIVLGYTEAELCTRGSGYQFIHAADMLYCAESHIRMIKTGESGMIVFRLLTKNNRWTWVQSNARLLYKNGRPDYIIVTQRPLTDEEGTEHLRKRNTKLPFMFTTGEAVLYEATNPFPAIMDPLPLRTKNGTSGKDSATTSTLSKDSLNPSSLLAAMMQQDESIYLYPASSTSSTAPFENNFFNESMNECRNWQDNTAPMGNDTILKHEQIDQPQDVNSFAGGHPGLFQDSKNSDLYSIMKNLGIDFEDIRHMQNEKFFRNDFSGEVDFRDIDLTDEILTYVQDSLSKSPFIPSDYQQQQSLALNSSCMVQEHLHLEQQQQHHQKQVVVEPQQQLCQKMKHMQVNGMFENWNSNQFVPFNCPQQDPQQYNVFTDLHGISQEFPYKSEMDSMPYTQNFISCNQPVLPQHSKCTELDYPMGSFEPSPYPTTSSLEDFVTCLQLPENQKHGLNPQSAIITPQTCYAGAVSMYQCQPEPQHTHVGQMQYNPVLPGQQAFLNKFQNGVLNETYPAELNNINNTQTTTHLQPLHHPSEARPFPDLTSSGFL
Description: as §1
(§3) Gene reporter assays were performed in two different experimental layouts. In agonist mode, cells were treated with increasing concentrations of tested compounds, and the half-maximal effective concentrations (EC50) were calculated.

[6] = target: T3, aryl hydrocarbon receptor AhR; assay: AhR gene reporter assay in AZ-AHR cells, agonist mode; format: cell-based
Description: as §1, §3

AZ-GR cells = assay: MTT cytotoxicity test in AZ-GR cells; format: cell-based, human; conditions: Homo sapiens; 24 h incubation; read-out: AZ-GR viability - MTT IC50
Description: as §1, §2

[7] = target: T2, glucocorticoid receptor (GR); assay: GR gene reporter assay in AZ-GR cells, agonist mode; format: cell-based
Description: as §1, §2

C. albicans 978 = assay: MIC assessment, microdilution; format: cell-based; conditions: Candida albicans
Description: (§4) Antifungal activity was assessed using the standard microdilution method determining the minimum inhibitory concentrations (MICs) of the tested samples leading to inhibition of yeast growth. Disposable microtiter plates were used for the tests. The samples were diluted in brain heart infusion broth (HiMedia). […] C. albicans, C. krusei, C. tropicalis and C. parapsilosis. […] Subsequently, 100 µL were transferred into the first microplate well and serially diluted by a factor of 2. The prepared microplates were inoculated with a standard amount of the tested Candida spp. – the inoculum density in a well was equal to 10^5 CFU/mL. […] The minimum fungicidal concentration (MFC) is the minimum concentration of the sample required to kill the yeast after a defined period of incubation. The MFCs were determined by the inoculation method. With an applicator, 10 µL were transferred from the microplate wells with defined concentrations of the tested sample and inoculated onto Sabouraud agar (Trios). The MFC was determined as the lowest concentration that inhibited the visible growth of the used yeast. For growth curve assessment, the samples were serially diluted in 96-well microtiter plates. […] Absorbance (630 nm) was measured every hour during 24 hours and the obtained values were used to plot growth curves

C. albicans 1 = assay: MIC assessment, microdilution; format: cell-based; conditions: Candida albicans
Description: as §4

C. krusei 3 = assay: MIC assessment, microdilution; format: cell-based; conditions: Pichia kudriavzevii
Description: as §4

C. tropicalis 5 = assay: MIC assessment, microdilution; format: cell-based; conditions: Candida tropicalis
Description: as §4

C. krusei 094 = assay: MIC assessment, microdilution; format: cell-based; conditions: Pichia kudriavzevii
Description: as §4

C. parapsilosis 6 = assay: MIC assessment, microdilution; format: cell-based; conditions: Lodderomyces parapsilosis
Description: as §4

T1 sequence (P30561 10-805 limits assumed): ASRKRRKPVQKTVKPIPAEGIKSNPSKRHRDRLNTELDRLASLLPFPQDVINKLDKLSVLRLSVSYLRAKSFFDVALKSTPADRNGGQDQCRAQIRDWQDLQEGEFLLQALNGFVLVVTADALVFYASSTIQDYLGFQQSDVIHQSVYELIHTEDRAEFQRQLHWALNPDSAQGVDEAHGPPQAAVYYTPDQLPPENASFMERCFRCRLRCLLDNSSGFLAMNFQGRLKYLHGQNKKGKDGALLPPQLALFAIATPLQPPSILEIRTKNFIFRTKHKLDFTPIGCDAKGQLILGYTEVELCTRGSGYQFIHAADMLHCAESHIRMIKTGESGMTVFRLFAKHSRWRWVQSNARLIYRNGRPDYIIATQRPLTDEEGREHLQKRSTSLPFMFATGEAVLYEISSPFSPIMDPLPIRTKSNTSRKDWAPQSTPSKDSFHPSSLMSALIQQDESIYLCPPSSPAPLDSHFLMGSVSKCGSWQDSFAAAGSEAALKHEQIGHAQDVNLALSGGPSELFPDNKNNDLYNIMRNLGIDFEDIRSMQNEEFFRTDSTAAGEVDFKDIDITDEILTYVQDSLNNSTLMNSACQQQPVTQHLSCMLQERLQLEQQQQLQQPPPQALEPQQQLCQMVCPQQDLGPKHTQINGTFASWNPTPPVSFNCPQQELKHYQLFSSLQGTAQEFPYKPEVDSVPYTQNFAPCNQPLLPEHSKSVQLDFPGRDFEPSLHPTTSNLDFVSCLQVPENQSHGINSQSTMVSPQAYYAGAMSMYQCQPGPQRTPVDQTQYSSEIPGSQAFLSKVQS
T1 sequence (P53762 whole entry partner): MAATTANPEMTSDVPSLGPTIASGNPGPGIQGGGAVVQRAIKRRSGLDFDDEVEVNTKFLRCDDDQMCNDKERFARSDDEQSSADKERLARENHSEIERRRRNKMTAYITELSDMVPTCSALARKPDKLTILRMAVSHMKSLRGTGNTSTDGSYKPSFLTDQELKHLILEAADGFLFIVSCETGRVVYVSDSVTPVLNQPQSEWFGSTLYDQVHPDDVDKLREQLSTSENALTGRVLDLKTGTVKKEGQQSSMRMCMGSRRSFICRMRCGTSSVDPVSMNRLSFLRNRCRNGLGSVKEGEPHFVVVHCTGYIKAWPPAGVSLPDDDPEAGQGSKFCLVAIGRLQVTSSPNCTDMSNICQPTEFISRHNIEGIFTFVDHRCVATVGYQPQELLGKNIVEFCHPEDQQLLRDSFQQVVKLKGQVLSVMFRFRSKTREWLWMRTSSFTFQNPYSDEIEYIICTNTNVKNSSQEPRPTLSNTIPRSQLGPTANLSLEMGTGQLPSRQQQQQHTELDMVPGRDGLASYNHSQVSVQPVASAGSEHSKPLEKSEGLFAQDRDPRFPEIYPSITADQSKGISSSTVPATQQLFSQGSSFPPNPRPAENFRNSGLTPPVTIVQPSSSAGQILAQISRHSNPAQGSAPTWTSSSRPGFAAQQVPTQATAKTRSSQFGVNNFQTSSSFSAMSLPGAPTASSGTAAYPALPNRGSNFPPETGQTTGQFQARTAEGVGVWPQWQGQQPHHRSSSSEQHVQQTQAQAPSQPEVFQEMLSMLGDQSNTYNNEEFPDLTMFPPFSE

Row | MIC (C. albicans 978) | MIC (C. albicans 1) | MIC (C. krusei 3) | MIC (C. tropicalis 5) | MIC (C. krusei 094) | MIC (C. parapsilosis 6) | Compound | transformation of AhR to DNA binding form (in words) (AhR) | also measured
1 |  |  |  |  |  |  | CC(=O)N1CCN(c2ccc(OCC3COC(Cn4ccnc4)(c4ccc(Cl)cc4Cl)O3)cc2)CC1 (racemic) [racemic KET obtained by mixing pure (+)-KET and pure (−)-KET in ratio 1∶1] | much weaker and comparable with individual enantiomers | antagonist effect in titration experiment (in words) ([1]; final concentration 50 µM, DEX 100 nM): much stronger as compared to commercial rac-KET
2 |  |  |  |  |  |  | CC(=O)N1CCN(c2ccc(OC[C@@H]3CO[C@@](Cn4ccnc4)(c4ccc(Cl)cc4Cl)O3)cc2)CC1 [(−)-KET, (2S,4R)-(−)-KET] | only weakly transformed | viability at 24 h, 50 µM [2]: 37%; IC50 at 24 h [3]: 72.7 ± 27.3 µM; TAT mRNA induction (in words) [4]: strong, concentration-dependent induction; IC50 [5]: 17.5 ± 1.7 µM; AZ-AHR gene reporter - agonist efficacy [6]: 5,2 ± 3,2%; EC50 ([6]; 24 h, agonist mode): 2200 nM; IC50 (AZ-GR cells): 71.6 ± 27.5 µM; increase of luciferase activity, agonist mode ([7]; up to / at 100 µM, 24 h): did not induce luciferase activity; IC50 ([1]; in the presence of DEX 100 nM): 26.7 ± 3.7 µM
3 |  |  |  |  |  |  | C[C@@H]1C[C@H]2[C@@H]3CCC4=CC(=O)C=C[C@]4(C)[C@@]3(F)[C@@H](O)C[C@]2(C)[C@@]1(O)C(=O)CO [DEX, dexamethasone] |  | average induction of GR-dependent luciferase activity ([7]; 100 nM DEX, four passages): 70 fold
4 | 1.5 µg/mL (≈ 4.9 µM) | 0.38 µg/mL (≈ 1.24 µM) | 48 µg/mL (≈ 157 µM) | 6 µg/mL (≈ 19.6 µM) | 32 µg/mL (≈ 104 µM) | 2 µg/mL (≈ 6.53 µM) | OC(Cn1cncn1)(Cn1cncn1)c1ccc(F)cc1F [Fluconazole, fluconazole] |  | 
5 | 0.064 µg/mL (≈ 0.0913 µM) | 0.094 µg/mL (≈ 0.134 µM) | 0.19 µg/mL (≈ 0.271 µM) | 0.19 µg/mL (≈ 0.271 µM) | 0.25 µg/mL (≈ 0.357 µM) | 0.032 µg/mL (≈ 0.0457 µM) | CC[C@@H]([C@H](C)O)n1ncn(-c2ccc(N3CCN(c4ccc(OC[C@@H]5CO[C@@](Cn6cncn6)(c6ccc(F)cc6F)C5)cc4)CC3)cc2)c1=O [Posaconazole, posaconazole] |  | 
6 | 0.016 µg/mL (≈ 0.0458 µM) | 0.016 µg/mL (≈ 0.0458 µM) | 0.19 µg/mL (≈ 0.544 µM) | 0.19 µg/mL (≈ 0.544 µM) | 0.19 µg/mL (≈ 0.544 µM) | 0.023 µg/mL (≈ 0.0658 µM) | C[C@@H](c1ncncc1F)[C@](O)(Cn1cncn1)c1ccc(F)cc1F [Voriconazole, voriconazole] |  | 
